This passage reports IC50 results from patent US9278981B2, “Compounds and compositions for inhibiting the activity of ABL1, ABL2 and BCR-ABL1” (Novartis AG, priority 2012, dated 2016).

In assay [1] the target is T1, ABL1 (64-515) (Homo sapiens (Human), UniProt P00519). Nature of the assay: Caliper ABL1 (64-515) assay (microfluidic mobility shift). The class given is biochemical.
Assay [2] concerns the target T1, ABL1 (64-515). The assay is described as follows: Radio ABL1 (64-515) assay (radiometric filter-binding). The class given is biochemical.
The mark [3] stands for this setting: comparison of ortho substitution on the R3/R4 ring.

T1 sequence (P00519 64-515): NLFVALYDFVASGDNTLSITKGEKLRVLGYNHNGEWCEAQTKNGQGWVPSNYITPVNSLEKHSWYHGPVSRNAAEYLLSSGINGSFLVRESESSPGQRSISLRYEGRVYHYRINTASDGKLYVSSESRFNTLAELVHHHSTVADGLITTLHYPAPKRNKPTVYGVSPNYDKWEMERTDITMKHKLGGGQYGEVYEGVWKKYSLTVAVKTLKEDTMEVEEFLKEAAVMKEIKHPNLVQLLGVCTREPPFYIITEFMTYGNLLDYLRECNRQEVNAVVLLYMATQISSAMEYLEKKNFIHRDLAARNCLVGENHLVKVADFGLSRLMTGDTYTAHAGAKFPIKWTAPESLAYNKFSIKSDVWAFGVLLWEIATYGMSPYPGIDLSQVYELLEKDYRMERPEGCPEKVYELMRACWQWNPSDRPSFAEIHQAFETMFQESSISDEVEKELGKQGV

With `O=C(Nc1ccc(OC(F)(F)F)cc1Cl)c1cnc(N2CC[C@@H](O)C2)c(-c2cncnc2)c1`, the IC50 (usually the midpoint of a concentration-inhibition curve) on ABL1 (64-515) [1] (setting [3]) came to 850 nM.

For the compound `O=C(Nc1c(Cl)cc(OC(F)(F)F)cc1Cl)c1cnc(N2CC[C@@H](O)C2)c(-c2cncnc2)c1`, on ABL1 (64-515) [1] (setting [3]), the IC50 is more than 10000 nM.

With `O=C(Nc1ccc(OC(F)(F)F)cc1)c1cnc(N2C[C@H](CO)[C@@H](O)C2)c(-c2cncc(F)c2)c1` (relative stereo) [Example 92, 5′-Fluoro-2-(trans-3-hydroxy-4-(hydroxymethyl)pyrrolidin-1-yl)-N-(4-(trifluoromethoxy)phenyl)-[3,3′-bipyridine]-5-carboxamide], the IC50 at ABL1 (64-515) [2] turned out to be 6 nM; on ABL1 (64-515) [1] it was 0.7 nM. Taken in the same sequence, the figures for `O=C(Nc1ccc(OC(F)(F)Cl)cc1)c1cnc(N2C[C@H](CO)[C@@H](O)C2)c(-c2cncnc2)c1` (relative stereo) [Example 250, N-(4-(Chlorodifluoromethoxy)phenyl)-6-(trans-3-hydroxy-4-(hydroxymethyl)pyrrolidin-1-yl)-5-(pyrimidin-5-yl)nicotinamide] were 1 nM and 1.3 nM.

Regarding `CO[C@H]1CN(c2ncc(C(=O)Nc3ccc(OC(F)(F)F)cc3)cc2-c2cncc(F)c2)C[C@@H]1N` (relative stereo) [Example 286, 2-(trans-3-Amino-4-methoxypyrrolidin-1-yl)-5′-fluoro-N-(4-(trifluoromethoxy)phenyl)-[3,3′-bipyridine]-5-carboxamide], the IC50 at ABL1 (64-515) [2] amounted to 2 nM; on ABL1 (64-515) [1], 1.7 nM.

Take `O=C(Nc1ccc(OC(F)(F)F)cc1)c1ccc(N2CC[C@@H](O)C2)c(-c2cccnc2)c1` [Example 5, (R)-4-(3-Hydroxypyrrolidin-1-yl)-3-(pyridin-3-yl)-N-(4-(trifluoromethoxy)phenyl)benzamide]: the half-inhibitory concentration (IC50) on ABL1 (64-515) [2] was less than 3 nM; at ABL1 (64-515) [1], 2.7 nM. Taken in the same sequence, the figures for `O=C(Nc1ccc(OC(F)(F)F)cc1)c1ccc(N2C[C@H](O)[C@@H](O)C2)c(-c2cncnc2)c1` [Example 7, 4-((3S,4S)-3,4-Dihydroxypyrrolidin-1-yl)-3-(pyrimidin-5-yl)-N-(4-(trifluoromethoxy)phenyl)benzamide] were less than 3 nM and 1.2 nM.

For the compound `O=C(Nc1ccc(OC(F)(F)F)cc1)c1ccc(N2C[C@H](O)[C@@H](O)C2)c(-c2cccnc2)c1` [Example 8, 4-((3S,4S)-3,4-Dihydroxypyrrolidin-1-yl)-3-(pyridin-3-yl)-N-(4-(trifluoromethoxy)phenyl)benzamide], the IC50 at ABL1 (64-515) [2] was 13 nM; at ABL1 (64-515) [1] it was 2.8 nM. Taken in the same sequence, the figures for `Cc1ccc(-c2cc(C(=O)Nc3ccc(OC(F)(F)F)cc3)ccc2N2C[C@H](O)[C@@H](O)C2)cn1` [Example 9, 4-((3S,4S)-3,4-Dihydroxypyrrolidin-1-yl)-3-(6-methylpyridin-3-yl)-N-(4-(trifluoromethoxy)phenyl)benzamide] were 17 nM and 1.8 nM. On to `O=C(Nc1ccc(OC(F)(F)F)cc1)c1ccc(N2C[C@@H](O)[C@@H](O)C2)c(-c2cncnc2)c1` [Example 10, 4-(cis-3,4-Dihydroxypyrrolidin-1-yl)-3-(pyrimidin-5-yl)-N-(4-(trifluoromethoxy)phenyl)benzamide], for which the results for the concentration for half-maximal inhibition (IC50) at ABL1 (64-515) [2] and at ABL1 (64-515) [1] were 3 nM and 2.2 nM, respectively. Regarding `O=C(Nc1ccc(OC(F)(F)F)cc1)c1cnc(N2CC(O)C2)c(-c2cncnc2)c1` [Example 25], the concentration for half-maximal inhibition (IC50) was less than 3 nM on ABL1 (64-515) [2] and 1.9 nM on ABL1 (64-515) [1]. Taken in the same sequence, the figures for `Cc1ccc(-c2cc(C(=O)Nc3ccc(OC(F)(F)F)cc3)cnc2N2CC[C@H](O)C2)cn1` [Example 34, (S)-2-(3-Hydroxypyrrolidin-1-yl)-6′-methyl-N-(4-(trifluoromethoxy)phenyl)-[3,3′-bipyridine]-5-carboxamide] were less than 3 nM and 0.8 nM. The like results for `Nc1ncc(-c2cc(C(=O)Nc3ccc(OC(F)(F)F)cc3)cnc2N2CC[C@@H](O)C2)cn1` [Example 38, (R)-5-(2-Aminopyrimidin-5-yl)-6-(3-hydroxypyrrolidin-1-yl)-N-(4-(trifluoromethoxy)phenyl)nicotinamide] were, in that order, 4 nM and 1.4 nM.

As for `O=C(Nc1ccc(OC(F)(F)F)cc1)c1cnc(N2CC[C@@H](O)C2)c(-c2cccnc2)c1` [Example 39, (R)-2-(3-Hydroxypyrrolidin-1-yl)-N-(4-(trifluoromethoxy)phenyl)-[3,3′-bipyridine]-5-carboxamide], the IC50 on ABL1 (64-515) [2] was less than 3 nM; on ABL1 (64-515) [1] it was 0.6 nM. As to `Cc1ccc(-c2cc(C(=O)Nc3ccc(OC(F)(F)F)cc3)cnc2N2CC[C@@H](O)C2)cn1` [Example 41, (R)-2-(3-Hydroxypyrrolidin-1-yl)-6′-methyl-N-(4-(trifluoromethoxy)phenyl)-[3,3′-bipyridine]-5-carboxamide], the IC50 was less than 3 nM at ABL1 (64-515) [2] and 0.8 nM at ABL1 (64-515) [1]. For the compound `O=C(Nc1ccc(OC(F)(F)F)cc1)c1cnc(N2CC[C@@H](O)C2)c(-c2ccc(CO)nc2)c1` [Example 42, (R)-6′-(Hydroxymethyl)-2-(3-hydroxypyrrolidin-1-yl)-N-(4-(trifluoromethoxy)phenyl)-[3,3′-bipyridine]-5-carboxamide], the 50% inhibitory concentration (IC50) at ABL1 (64-515) [2] was less than 3 nM; at ABL1 (64-515) [1], 0.8 nM.

Take `O=C(Nc1ccc(OC(F)(F)F)cc1)c1cnc(N2CC[C@@H](O)C2)c(-c2cncc(F)c2)c1` [Example 45, (R)-5′-Fluoro-2-(3-hydroxypyrrolidin-1-yl)-N-(4-(trifluoromethoxy)phenyl)-[3,3′-bipyridine]-5-carboxamide]: the IC50 was less than 3 nM at ABL1 (64-515) [2] and 1.1 nM on ABL1 (64-515) [1]. The like results for `O=C(Nc1ccc(OC(F)(F)F)cc1)c1cnc(N2CC[C@@H](O)C2)c(-c2ccc(F)nc2)c1` [Example 47, (R)-6′-Fluoro-2-(3-hydroxypyrrolidin-1-yl)-N-(4-(trifluoromethoxy)phenyl)-[3,3′-bipyridine]-5-carboxamide] were, in that order, 3 nM and 1.2 nM. For the compound `CN(C)CCCN(C)c1ncc(C(=O)Nc2ccc(OC(F)(F)F)cc2)cc1-c1cccnc1` [Example 168, 2-((3-(Dimethylamino)propyl)(methyl)amino)-N-(4-(trifluoromethoxy)phenyl)-[3,3′-bipyridine]-5-carboxamide], the 50% inhibitory concentration (IC50) at ABL1 (64-515) [2] was less than 3 nM. With `NC12CC1CN(c1ncc(C(=O)Nc3ccc(OC(F)(F)F)cc3)cc1-c1cncnc1)C2` (centres unmarked) [Example 226, 6-(1-Amino-3-azabicyclo[3.1.0]hexan-3-yl)-5-(pyrimidin-5-yl)-N-(4-(trifluoromethoxy)phenyl)nicotinamide], the IC50 on ABL1 (64-515) [1] turned out to be 1.9 nM. `O=C(Nc1ccc(OC(F)(F)F)cc1)c1cnc(N2CC[C@@H](O)C2)c(-c2cncc(C(F)(F)F)c2)c1` [Example 234, (R)-2-(3-Hydroxypyrrolidin-1-yl)-N-(4-(trifluoromethoxy)phenyl)-5′-(trifluoromethyl)-[3,3′-bipyridine]-5-carboxamide] came in with an IC50 at ABL1 (64-515) [2] of 19 nM.

In the case of `O=C(Nc1ccc(OC(F)(F)F)cc1)c1cnc(N2CC3CN(CCO)CC3C2)c(-c2cncnc2)c1` (centres unmarked) [Example 281, 6-(5-(2-Hydroxyethyl)hexahydropyrrolo[3,4-c]pyrrol-2(1H)-yl)-5-(pyrimidin-5-yl)-N-(4-(trifluoromethoxy)phenyl)nicotinamide], the IC50 on ABL1 (64-515) [1] stood at 11 nM.

Take `N#Cc1ccc(F)cc1-c1cc(C(=O)Nc2ccc(OC(F)(F)Cl)cc2)cnc1N1CC[C@@H](O)C1` [Example 287, (R)—N-(4-(Chlorodifluoromethoxy)phenyl)-5-(2-cyano-5-fluorophenyl)-6-(3-hydroxypyrrolidin-1-yl)nicotinamide]: the IC50 on ABL1 (64-515) [1] turned out to be 1.5 nM. On the same count and under the same terms, next, `O=C(Nc1ccc(OC(F)(F)Cl)cc1)c1cnc(N2CC[C@@H](O)C2)c(-c2cc(F)cnc2Cl)c1` [Example 288, (R)-2′-Chloro-N-(4-(chlorodifluoromethoxy)phenyl)-5′-fluoro-2-(3-hydroxypyrrolidin-1-yl)-[3,3′-bipyridine]-5-carboxamide]: 1 nM; `Cc1ccncc1-c1cc(C(=O)Nc2ccc(OC(F)(F)Cl)cc2)cnc1N1CC[C@@H](O)C1` [Example 291, (R)—N-(4-(Chlorodifluoromethoxy)phenyl)-2-(3-hydroxypyrrolidin-1-yl)-4′-methyl-[3,3′-bipyridine]-5-carboxamide]: 0.2 nM; `N#Cc1ncc(F)cc1-c1cc(C(=O)Nc2ccc(OC(F)(F)Cl)cc2)cnc1N1CC[C@@H](O)C1` [Example 292, (R)—N-(4-(Chlorodifluoromethoxy)phenyl)-2′-cyano-5′-fluoro-2-(3-hydroxypyrrolidin-1-yl)-[3,3′-bipyridine]-5-carboxamide]: 0.5 nM.

Take `N#Cc1cc(F)cc(-c2cc(C(=O)Nc3ccc(OC(F)(F)Cl)cc3)cnc2N2CC[C@@H](O)C2)c1` [Example 293, (R)—N-(4-(Chlorodifluoromethoxy)phenyl)-5-(3-cyano-5-fluorophenyl)-6-(3-hydroxypyrrolidin-1-yl)nicotinamide]: at ABL1 (64-515) [1], the half-maximal inhibitory concentration (IC50) was determined as 0.7 nM.

For the compound `Cc1ccc(F)cc1-c1cc(C(=O)Nc2ccc(OC(F)(F)Cl)cc2)cnc1N1CC[C@@H](O)C1` [Example 294, (R)—N-(4-(Chlorodifluoromethoxy)phenyl)-5-(5-fluoro-2-methylphenyl)-6-(3-hydroxypyrrolidin-1-yl)nicotinamide], on ABL1 (64-515) [1], the IC50 is 3 nM. Still for that read-out and setting: next, `N#Cc1ccc(F)c(-c2cc(C(=O)Nc3ccc(OC(F)(F)Cl)cc3)cnc2N2CC[C@@H](O)C2)c1` [Example 295, (R)—N-(4-(Chlorodifluoromethoxy)phenyl)-5-(5-cyano-2-fluorophenyl)-6-(3-hydroxypyrrolidin-1-yl)nicotinamide]: 0.7 nM.

Consider `Cc1ccc(F)cc1-c1cc(C(=O)Nc2ccc(OC(F)(F)Cl)cc2)cnc1N1C[C@H](O)[C@@H](O)C1` [Example 296, N-(4-(Chlorodifluoromethoxy)phenyl)-6-((3S,4S)-3,4-dihydroxypyrrolidin-1-yl)-5-(5-fluoro-2-methylphenyl)nicotinamide], for which the 50% inhibitory concentration (IC50) on ABL1 (64-515) [1] came out at 1 nM. With `COc1ncc(-c2cc(C(=O)Nc3ccc(OC(F)(F)Cl)cc3)cnc2N2CC[C@@H](O)C2)cc1C#N` [Example 299, (R)—N-(4-(Chlorodifluoromethoxy)phenyl)-5′-cyano-2-(3-hydroxypyrrolidin-1-yl)-6′-methoxy-[3,3′-bipyridine]-5-carboxamide], at ABL1 (64-515) [1], the IC50 was determined as 0.3 nM.
